Values of other authors, collected in patent US20050232952A1, “Self emulsifying drug delivery systems for poorly soluble drugs” (priority 2002, published 2005).

Conditions: humans

systemic bioavailability after oral paclitaxel administration: less than 6%
SMILES: CC(=O)O[C@H]1C(=O)[C@@]2(C)[C@H]([C@H](OC(=O)c3ccccc3)[C@]3(O)C[C@H](OC(=O)[C@H](O)[C@@H](NC(=O)c4ccccc4)c4ccccc4)C(C)=C1C3(C)C)[C@]1(OC(C)=O)CO[C@@H]1C[C@@H]2O [paclitaxel, Paclitaxel]
